The target of assay [1] is T1, N-terminal His-tagged TYK2 pseudokinase domain (Homo sapiens, UniProt P29597).
T1 construct: the N-terminal His-tagged TYK2 pseudokinase domain; His (N); purchased Pharmaron
In words: TYK2 JH2 domain SPA binding assay. The note with it: displacement of H3 probe (20 nM), 30 min room temperature; class symbols. How it is done: TYK2 JH2 Domain Binding Assay
After incubating at room temperature for 30 min, the inhibition was calculated by the displacement of [3H] 3 binding as determined by scintillation counting. Dose-response curves were generated to determine the concentration required to inhibit H3 probe binding by […] (IC50).

For assay [2], the system named is IL-23 induced STAT3 in HEK-Blue™ IL-23 cells. In words: IL-23 induced STAT3 QUANTI-Blue reporter assay in HEK-Blue IL-23 cells. The note with it: IL-23 0.1 ng/mL, SEAP levels, class symbols, read-out: IL23 reporter assay (IC50 nM). It counts as cell-based. As for the experimental part:
Biological Example 2. IL-23 Induced STAT3 QUANTI-Blue in HEK-Blue™ IL-23 Cells
HEK-Blue™ IL-23 cells were prepared at 2×10^5 cells/ml for adding 5000 cell/well and incubate plates containing compounds+cells for 1 hour at 37° C. Prepare IL-23 (treatment at final conc. 0.1 ng/mL) during incubation and add 2 ul per well of prepared cytokine in media to appropriate wells. The plate is incubated for overnight at 37° C. The next day, QUANTI-Blue solution is prepared. 18 ul of QUANTI-Blue solution per well is added into a new 384-well clear flat bottom plate, then add 2 ul of induced and treated HEK-Blue cell supernatant from overnight plate. Incubate the plate at 37° C. for 2 hours and determine SEAP levels.
In general terms: A reporter such as luciferase makes a cellular process visible.

The mark [3] stands for this setting: HEK-Blue IL-23, HEK-Blue IL-23 cells.

Where a name gives a salt, the structure may show the parent alone. Read-outs that look alike come from different tables or passages of the source.

As usually defined, the IC50 is the concentration needed to halve the response being measured.

T1 sequence (P29597 589-875 limits assumed): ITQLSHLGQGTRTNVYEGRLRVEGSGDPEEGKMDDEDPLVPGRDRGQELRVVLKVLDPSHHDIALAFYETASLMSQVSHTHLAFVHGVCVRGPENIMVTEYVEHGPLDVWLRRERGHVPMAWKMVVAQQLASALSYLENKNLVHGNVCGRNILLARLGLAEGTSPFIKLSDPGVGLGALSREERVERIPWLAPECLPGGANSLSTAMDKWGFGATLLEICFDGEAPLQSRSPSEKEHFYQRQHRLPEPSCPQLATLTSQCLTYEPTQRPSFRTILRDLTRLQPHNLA

Turning to `[2H]C([2H])([2H])Nc1cc(Nc2cccn(C3CC4(CCOC4)C3)c2=O)nn2c(C(=O)N[C@@H]3C[C@@H]3F)cnc12` (single isomer, unassigned) [Compound 102b], the IC50 in assay [1] and in assay [2] (HEK-Blue IL-23 cells) was 10 to 100 nM each time.

For `[2H]C([2H])([2H])Nc1cc(Nc2cccn(C3CC4(CCOC4)C3)c2=O)nc2c(C(=O)N[C@@H]3C[C@@H]3F)cnn12` (single isomer, unassigned) [Compound 103a], the IC50 in assay [1] and in assay [2] (setting [3]) was 10 to 100 nM in each case.

`[2H]C([2H])([2H])Nc1cc(Nc2cccn(C3CC4(CCOC4)C3)c2=O)nc2c(C(=O)N[C@@H]3C[C@@H]3F)cnn12` (single isomer, unassigned) [Compound 103b]: the IC50 fell in the range of 100 to 1000 nM in assay [1] and 10 to 100 nM in assay [2] (HEK-Blue IL-23 cells).

As to `[2H]C([2H])([2H])Nc1cc(Nc2cccn(C3CC4(CCCO4)C3)c2=O)nn2c(C(=O)N[C@@H]3C[C@@H]3F)cnc12` (single isomer, unassigned) [Compound 104a], the IC50 in assay [1] and in assay [2] (setting [3]) was 10 to 100 nM throughout.

On to `[2H]C([2H])([2H])Nc1cc(Nc2cccn(C3CC4(CCCO4)C3)c2=O)nn2c(C(=O)N[C@@H]3C[C@@H]3F)cnc12` (single isomer, unassigned) [Compound 104b], for which the IC50 in assay [1] and in assay [2] (HEK-Blue IL-23 cells) was 10 to 100 nM in each case.

On to `CNc1cc(Nc2cccn(C3CC4CCOC43)c2=O)nn2c(C(=O)N[C@@H]3C[C@@H]3F)cnc12` (single isomer, unassigned) [Compound 105a], for which the IC50 in assay [1] was 100 to 1000 nM; in assay [2] (setting [3]), 10 to 100 nM.

On to `CNc1cc(Nc2cccn(C3CC4CCOC43)c2=O)nn2c(C(=O)N[C@@H]3C[C@@H]3F)cnc12` (single isomer, unassigned) [Compound 105b], for which the figures for the IC50 in assay [1] and in assay [2] (HEK-Blue IL-23 cells) were 100 to 1000 nM and 10 to 100 nM, respectively.

As to `CNc1cc(Nc2cccn(C3CC4CCOC43)c2=O)nn2c(C(=O)N[C@@H]3C[C@@H]3F)cnc12` (single isomer, unassigned) [Compound 105c], the IC50 in assay [1] and in assay [2] (HEK-Blue IL-23 cells) was 10 to 100 nM throughout.

Consider `CNc1cc(Nc2cccn(C3CC4CCOC43)c2=O)nn2c(C(=O)N[C@@H]3C[C@@H]3F)cnc12` (single isomer, unassigned) [Compound 105d], for which the IC50 was 10 to 100 nM in assay [1] and below 10 nM in assay [2] (HEK-Blue IL-23 cells).

For the compound `CNc1cc(Nc2cccn(-c3ncccc3F)c2=O)nn2c(C(=O)N[C@@H]3C[C@H]4CCO[C@H]43)cnc12` [Compound 1, N-((1R,5S,7R)-2-oxabicyclo[3.2.0]heptan-7-yl)-6-((3′-fluoro-2-oxo-2H-[1,2′-bipyridin]-3-yl)amino)-8-(methylamino)imidazo[1,2-b]pyridazine-3-carboxamide], the IC50 in assay [1] is 10 to 100 nM; in assay [2] (setting [3]), below 10 nM.

As to `[2H]C([2H])([2H])Nc1cc(Nc2cccn(-c3ncccc3F)c2=O)nn2c(C(=O)N[C@@H]3C[C@H]4CCO[C@H]43)cnc12` [Compound 5, N-((1R,5S,7R)-2-oxabicyclo[3.2.0]heptan-7-yl)-6-((3′-fluoro-2-oxo-2H-[1,2′-bipyridin]-3-yl)amino)-8-((methyl-d3)amino)imidazo[1,2-b]pyridazine-3-carboxamide], the IC50 in assay [1] was 10 to 100 nM; in assay [2] (setting [3]), below 10 nM.

`CNc1cc(Nc2cccc3c2OCCC3)nn2c(C(=O)NC3CCn4ccnc43)cnc12` (stereo not shown) [Compound 6, 6-(chroman-8-ylamino)-N-(6,7-dihydro-5H-pyrrolo[1,2-a]imidazol-7-yl)-8-(methylamino)imidazo[1,2-b]pyridazine-3-carboxamide]: the IC50 in assay [1] and in assay [2] (setting [3]) was below 10 nM in each case.

Consider `CNc1cc(Nc2cccn(-c3ccccn3)c2=O)nn2c(C(=O)NC3CCc4conc43)cnc12` (stereo not shown) [Compound 7, N-(5,6-dihydro-4H-cyclopenta[c]isoxazol-6-yl)-8-(methylamino)-6-((2-oxo-2H-[1,2′-bipyridin]-3-yl)amino)imidazo[1,2-b]pyridazine-3-carboxamide], for which the IC50 in assay [1] and in assay [2] (setting [3]) was below 10 nM each time.

As for `[2H]c1onc2c1CCC2NC(=O)c1cnc2c(NC)cc(Nc3cccn(-c4ccccn4)c3=O)nn12` (stereo not shown) [Compound 8, N-(5,6-dihydro-4H-cyclopenta[c]isoxazol-6-yl-3-d)-8-(methylamino)-6-((2-oxo-2H-[1,2′-bipyridin]-3-yl)amino)imidazo[1,2-b]pyridazine-3-carboxamide], the 50% inhibitory concentration (IC50) in assay [1] and in assay [2] (setting [3]) was below 10 nM in each case.

For the compound `CNc1cc(Nc2cccn(-c3ccccn3)c2=O)nn2c(C(=O)NC3CCc4scnc43)cnc12` (stereo not shown) [Compound 9, N-(5,6-dihydro-4H-cyclopenta[d]thiazol-4-yl)-8-(methylamino)-6-((2-oxo-2H-[1,2′-bipyridin]-3-yl)amino)imidazo[1,2-b]pyridazine-3-carboxamide], the IC50 in assay [1] and in assay [2] (setting [3]) was below 10 nM each time.

For `CNc1cc(Nc2cccn(C3CCC4(CC3)COC4)c2=O)nn2c(C(=O)N[C@@H]3C[C@H]4CCO[C@H]43)cnc12` [Compound 12, N-((1R,5S,7R)-2-oxabicyclo[3.2.0]heptan-7-yl)-8-(methylamino)-6-((2-oxo-1-(2-oxaspiro[3.5]nonan-7-yl)-1,2-dihydropyridin-3-yl)amino)imidazo[1,2-b]pyridazine-3-carboxamide], the IC50 in assay [1] and in assay [2] (setting [3]) was below 10 nM throughout.

Take `CNc1cc(Nc2cccn(C3C[C@H]4CC[C@@H](C3)O4)c2=O)nn2c(C(=O)N[C@@H]3C[C@H]4CCO[C@H]43)cnc12` (stereo partly drawn) [Compound 13, 6-((1-(cis-8-oxabicyclo[3.2.1]octan-3-yl)-2-oxo-1,2-dihydropyridin-3-yl)amino)-N-((1R,5S,7R)-2-oxabicyclo[3.2.0]heptan-7-yl)-8-(methylamino)imidazo[1,2-b]pyridazine-3-carboxamide]: the results for the IC50 in assay [1] and in assay [2] (setting [3]) were 10 to 100 nM and below 10 nM, respectively.

`[2H]C([2H])([2H])Nc1cc(Nc2cccn([C@@H]3C[C@H]4CCO[C@H]43)c2=O)nn2c(C(=O)N[C@@H]3C[C@H]4CCO[C@H]43)cnc12` [Compound 14, 6-((1-((1R,5S,7R)-2-oxabicyclo[3.2.0]heptan-7-yl)-2-oxo-1,2-dihydropyridin-3-yl)amino)-N-((1R,5S,7R)-2-oxabicyclo[3.2.0]heptan-7-yl)-8-((methyl-d3)amino)imidazo[1,2-b]pyridazine-3-carboxamide]: the IC50 in assay [1] and in assay [2] (setting [3]) was below 10 nM in each case.

In the case of `[2H]C([2H])([2H])O[C@H]1CC[C@@H](n2cccc(Nc3cc(NC)c4ncc(C(=O)N[C@@H]5C[C@@H]5F)n4n3)c2=O)CC1` [Compound 15, N-((1R,2S)-2-fluorocyclopropyl)-6-((1-((1s,4s)-4-(methoxy-d3)cyclohexyl)-2-oxo-1,2-dihydropyridin-3-yl)amino)-8-(methylamino)imidazo[1,2-b]pyridazine-3-carboxamide hydrochloride], the IC50 in assay [1] and in assay [2] (setting [3]) was 10 to 100 nM each time.

In the case of `CNc1cc(Nc2cccn([C@H]3CC[C@H](OC)CC3)c2=O)nn2c(C(=O)N[C@@H]3C[C@@H]3F)cnc12` [Compound 16, N-((1R,2S)-2-fluorocyclopropyl)-6-((1-((1r,4r)-4-methoxycyclohexyl)-2-oxo-1,2-dihydropyridin-3-yl)amino)-8-(methylamino)imidazo[1,2-b]pyridazine-3-carboxamide], the IC50 was 10 to 100 nM in assay [1] and below 10 nM in assay [2] (setting [3]).

These data come from patent publication US20240335443A1, “IMIDAZOLOPYRIDAZINE OR PYRAZOLOPYRIMIDINE COMPOUNDS AND COMPOSITIONS” (Anrui Biomedical Technology (Guangzhou) Co., Ltd., priority 2021, published 2024).
